Data taken from ChEMBL document CHEMBL3102742, “Corallorazines from the myxobacterium Corallococcus coralloides” (J Nat Prod, 2014).
Active and inactive are the calls of the source.

Columns and labels:
[1] = target: Cannabinoid receptor 1 (Homo sapiens) (UniProt P21554); assay: Binding affinity to CB1 receptor (unknown origin) up to 10 ug/ml
[2] = target: Procathepsin L (Homo sapiens) (UniProt P07711); assay: Inhibition of cathepsin L (unknown origin) up to 10 ug/ml
Escherichia coli = assay: Antibacterial activity against Escherichia coli DSM 498 up to 1 mg/ml by agar diffusion method; type: functional, organism-based
Mycotypha microspora = assay: Antifungal activity against Mycotypha microspora up to 1 mg/ml by agar diffusion method; type: functional, organism-based
Priestia megaterium = assay: Antibacterial activity against Bacillus megaterium DSM 32 up to 1 mg/ml by agar diffusion method; type: functional, organism-based
Trypsin (Homo sapiens) = Trypsin (Homo sapiens) (UniProt P07477+P07478+P35030); assay: Inhibition of trypsin (unknown origin) up to 10 ug/ml; type: protein assay
[3] = target: Prothrombin (Homo sapiens) (UniProt P00734); assay: Inhibition of human thrombin up to 10 ug/ml
Aspergillus ruber = assay: Antifungal activity against Eurotium rubrum DSM 62631 up to 1 mg/ml by agar diffusion method; type: functional
[4] = target: T1, Neutrophil elastase (Homo sapiens) (UniProt P08246); assay: Inhibition of human leucocyte elastase up to 10 ug/ml
T1 sequence (whole entry): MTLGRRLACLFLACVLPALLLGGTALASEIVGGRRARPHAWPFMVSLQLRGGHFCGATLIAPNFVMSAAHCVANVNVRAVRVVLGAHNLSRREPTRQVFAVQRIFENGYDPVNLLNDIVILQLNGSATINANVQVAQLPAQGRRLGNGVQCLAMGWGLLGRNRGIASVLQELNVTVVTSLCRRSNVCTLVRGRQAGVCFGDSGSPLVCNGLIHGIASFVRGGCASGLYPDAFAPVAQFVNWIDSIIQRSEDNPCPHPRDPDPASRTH

[5] = target: Cannabinoid receptor 2 (Homo sapiens) (UniProt P34972); assay: Binding affinity to CB2 receptor (unknown origin) up to 10 ug/ml
Homo sapiens = species: Homo sapiens; assay: Inhibition of chymotrypsin (unknown origin) up to 10 ug/ml
[6] = target: Cathepsin B (Homo sapiens) (UniProt P07858); assay: Inhibition of cathepsin B (unknown origin) up to 10 ug/ml
[7] = target: Cathepsin S (Homo sapiens) (UniProt P25774); assay: Inhibition of cathepsin S (unknown origin) up to 10 ug/ml
Microbotryum violaceum = assay: Antifungal activity against Microbotryum violaceum up to 1 mg/ml by agar diffusion method; type: functional, organism-based

Procathepsin L (Homo sapiens), sequence (P07711 114-333 limits assumed): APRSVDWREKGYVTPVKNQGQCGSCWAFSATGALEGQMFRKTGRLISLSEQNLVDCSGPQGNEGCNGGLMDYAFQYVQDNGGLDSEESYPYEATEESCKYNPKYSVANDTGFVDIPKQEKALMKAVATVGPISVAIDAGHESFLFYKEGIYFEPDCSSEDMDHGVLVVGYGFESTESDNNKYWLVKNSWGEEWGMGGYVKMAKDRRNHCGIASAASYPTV
Cannabinoid receptor 1 (Homo sapiens), sequence (P21554 whole entry): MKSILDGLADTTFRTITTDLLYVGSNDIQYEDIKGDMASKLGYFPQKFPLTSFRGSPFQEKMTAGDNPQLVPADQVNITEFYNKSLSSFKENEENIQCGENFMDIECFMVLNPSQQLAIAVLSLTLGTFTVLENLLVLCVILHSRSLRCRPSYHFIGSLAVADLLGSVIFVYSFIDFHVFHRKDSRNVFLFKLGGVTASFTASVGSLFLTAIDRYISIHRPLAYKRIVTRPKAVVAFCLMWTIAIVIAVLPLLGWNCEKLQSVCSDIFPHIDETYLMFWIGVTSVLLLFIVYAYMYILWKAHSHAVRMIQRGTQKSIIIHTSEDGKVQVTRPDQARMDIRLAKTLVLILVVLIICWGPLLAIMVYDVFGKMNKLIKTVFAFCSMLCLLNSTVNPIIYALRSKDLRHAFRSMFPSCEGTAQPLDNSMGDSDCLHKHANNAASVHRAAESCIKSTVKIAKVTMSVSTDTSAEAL
Cathepsin S (Homo sapiens), sequence (P25774 115-331 limits assumed): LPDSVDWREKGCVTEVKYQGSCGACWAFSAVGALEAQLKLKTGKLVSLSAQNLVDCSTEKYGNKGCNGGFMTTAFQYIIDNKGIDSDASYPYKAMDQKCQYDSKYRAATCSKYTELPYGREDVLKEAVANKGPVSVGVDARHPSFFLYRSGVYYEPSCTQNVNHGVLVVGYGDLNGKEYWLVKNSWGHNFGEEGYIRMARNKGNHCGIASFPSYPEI
Cannabinoid receptor 2 (Homo sapiens), sequence (P34972 whole entry): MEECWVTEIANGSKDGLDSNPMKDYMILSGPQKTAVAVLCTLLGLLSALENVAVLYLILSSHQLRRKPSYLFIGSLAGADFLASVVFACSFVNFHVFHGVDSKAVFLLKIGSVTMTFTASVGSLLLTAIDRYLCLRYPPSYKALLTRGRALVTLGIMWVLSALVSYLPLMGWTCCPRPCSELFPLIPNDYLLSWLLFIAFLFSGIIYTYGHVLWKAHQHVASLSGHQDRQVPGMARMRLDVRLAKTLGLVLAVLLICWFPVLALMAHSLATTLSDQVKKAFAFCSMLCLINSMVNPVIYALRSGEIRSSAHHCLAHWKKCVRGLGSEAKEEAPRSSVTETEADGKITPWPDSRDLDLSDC

C=C1C(=O)N(C)CC(O)N1C(=O)/C=C/C=C\CC(C)C (centres undefined)
inactive: Activity [1] | inhibition [2] | Activity (Escherichia coli) | Activity (Mycotypha microspora) | Activity (Priestia megaterium) | inhibition (Trypsin (Homo sapiens)) | inhibition [3] | Activity (Aspergillus ruber) | inhibition [4] | Activity [5] | inhibition (Homo sapiens) | inhibition [6] | inhibition [7] | Activity (Microbotryum violaceum)
